Values belong to the compound of their own block, whether it stands above or below them.
How the values were obtained:
OR8B3 = molecular target: T1, OR8B3 (Homo sapiens, UniProt Q8NGG8); assay: OR8B3 cell-based cAMP HTRF assay; details: dose-response, 100% = full agonist; for Emax: read-out: OR8B3 % Efficacy
T1 construct: Lucy (cleavable signal peptide) (N); FLAG (N); Rho (first 20 aa of bovine rhodopsin) (N); expressed in transfected cells
T1 sequence (Q8NGG8 1-313): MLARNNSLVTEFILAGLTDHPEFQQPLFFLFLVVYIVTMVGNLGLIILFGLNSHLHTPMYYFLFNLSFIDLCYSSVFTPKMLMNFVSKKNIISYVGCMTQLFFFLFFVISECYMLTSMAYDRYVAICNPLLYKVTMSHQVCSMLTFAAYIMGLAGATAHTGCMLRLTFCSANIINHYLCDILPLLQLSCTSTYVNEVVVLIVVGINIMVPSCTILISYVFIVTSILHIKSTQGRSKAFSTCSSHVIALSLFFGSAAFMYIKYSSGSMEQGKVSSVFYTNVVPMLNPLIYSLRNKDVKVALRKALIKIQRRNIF

OR7A17 = molecular target: T2, OR7A17 (Homo sapiens, UniProt O14581); assay: OR7A17 cell-based cAMP HTRF assay; details: dose-response, 100% = full agonist
T2 construct: Lucy (cleavable signal peptide) (N); FLAG (N); Rho (first 20 aa of bovine rhodopsin) (N); expressed in transfected cells
T2 sequence (O14581 1-309): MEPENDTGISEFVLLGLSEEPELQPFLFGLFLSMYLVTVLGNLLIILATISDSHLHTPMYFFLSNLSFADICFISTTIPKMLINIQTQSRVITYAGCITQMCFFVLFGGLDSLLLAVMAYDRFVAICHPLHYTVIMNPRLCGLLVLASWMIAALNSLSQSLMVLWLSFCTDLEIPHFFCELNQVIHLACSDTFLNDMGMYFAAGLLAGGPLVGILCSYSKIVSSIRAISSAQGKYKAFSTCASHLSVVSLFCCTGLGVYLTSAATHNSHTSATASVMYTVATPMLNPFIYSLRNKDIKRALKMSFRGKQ

OR5AU1 = molecular target: T3, OR5AU1 (Homo sapiens, UniProt Q8NGC0); assay: OR5AU1 cell-based cAMP HTRF assay; details: for Emax: read-out: OR5AU1 % Efficacy; for Active OR/Linked Tonality: OR5AU1 (Lactonic Coconut): receptor listed = activated by the compound
T3 construct: Lucy (cleavable signal peptide) (N); FLAG (N); Rho (first 20 aa of bovine rhodopsin) (N); expressed in transfected cells
T3 sequence (Q8NGC0 52-362): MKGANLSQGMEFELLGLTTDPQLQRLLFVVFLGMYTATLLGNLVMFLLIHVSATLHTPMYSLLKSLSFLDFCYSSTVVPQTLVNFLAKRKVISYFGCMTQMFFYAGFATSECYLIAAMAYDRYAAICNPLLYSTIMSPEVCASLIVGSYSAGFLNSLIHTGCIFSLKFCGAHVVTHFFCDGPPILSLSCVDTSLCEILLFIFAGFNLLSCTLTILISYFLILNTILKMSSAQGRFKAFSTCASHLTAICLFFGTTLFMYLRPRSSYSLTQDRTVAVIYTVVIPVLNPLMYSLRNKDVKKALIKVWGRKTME

OR11A1 = molecular target: T4, OR11A1 (Homo sapiens, UniProt Q9GZK7); assay: OR11A1 cell-based cAMP HTRF assay in HEK293T cells; details: for OR11A1 % Efficacy / Emax: dose-response, 100% = full agonist; for Emax: HEK-293T, read-out: OR11A1 % Efficacy
T4 construct: FLAG (N); Rho (first 20 aa of bovine rhodopsin) (N); expressed in transfected cells
T4 sequence (Q9GZK7 1-315): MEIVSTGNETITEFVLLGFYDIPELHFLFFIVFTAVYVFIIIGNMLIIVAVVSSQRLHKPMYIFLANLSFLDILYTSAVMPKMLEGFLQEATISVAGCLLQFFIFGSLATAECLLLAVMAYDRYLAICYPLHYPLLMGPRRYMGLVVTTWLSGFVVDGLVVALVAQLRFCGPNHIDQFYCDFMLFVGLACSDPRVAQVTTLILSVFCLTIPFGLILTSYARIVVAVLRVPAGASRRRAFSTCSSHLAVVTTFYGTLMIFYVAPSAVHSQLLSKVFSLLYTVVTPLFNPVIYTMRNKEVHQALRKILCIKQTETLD
Experimental: The molecular receptive range of the human odorant receptor OR11A1 (SEQ ID NO. 11) was tested by performing a large scale screening with a chemically and organoleptically diverse volatile compound library comprising approximately 800 compounds. Using a cell-based assay, OR11A1 was tested in an HEK293T cell line wherein the endogenous RTP1 gene has been activated and the odorant receptor chaperone was expressed (WO2016/201153 A1). Cells were co-transfected with the Flag-Rho-tagged receptor and the canonical olfactory G-protein Golf, and exposed to a single concentration of each test compound, tested individually. Receptor activity was detected by measuring the cAMP increase in the cytosol using an HTRF (Homogenous Time-Resolved Fluorescence unit) based kit (CisBio, cAMP dynamic 2 kit, 62AM4PEJ).
First, 300 mM stock solutions for 798 test compounds were made in pure DMSO. The stock solutions for each compound were further diluted to a final test concentration of 300 μM. The final concentration of DMSO was 0.1%, and had no visible effect on the cells. Each compound was presented to a cell line expressing the OR11A1 olfactory receptor. The quality of this high-throughput screening (HTS) process was determined and the window variability and signal reliability were assessed by calculating the Z′ value of each plate (the average Z′ value per plate was 0.72±0.12, well within the required quality standards between 0.5 and 1). The result of this single concentration activation screen is shown in FIG. 3, where hits are highlighted in light grey dots.
In a subsequent step using the same cell-based assay described above, the candidate hits were confirmed to be true agonists (activators) by performing dose-response experiments as shown in FIG. 4 for a subset of the best hits. […] Both sensitivity (potency) and activation strength (efficacy) were calculated from the curves, as a measure of EC50 (the concentration required to reach half-maximal activation level) and Span (the assay window span between baseline activity level and activation saturation plateau), respectively. These values were used to represent the molecular receptive range of OR11A1 according to the potency (X axis) and efficacy (Y axis) in FIG. 5. A partial agonist, Tonalide, is also listed. The […] agonists cover distinct perfumery tonalities: woody (Patchouli Alcohol), musky (Vulcanolide, Tonalide), and camphorous (Fenchyl Alcohol), Table 2. Taken together, the data depict the diversity of both the organoleptic tonalities and chemical structures of compounds capable of activating OR11A1, congruent with results described in WO2016/201152 A1 (musk) and EP2832347A1.(patchouli). The OR11A1 activity however was not associated with the tonalities of musk (WO2016/201152 A1) or patchouli (EP2832347A1) specifically but rather the earthy facet thereof. In fact, the single commonality between these compounds was the earthy tonality, which is semantically captured by the following descriptors: earthy, humus and earthy-moss. These compounds are neither all musks nor patchouli but they all are earthy.

OR5A1 = molecular target: T5, OR5A1 (Homo sapiens, UniProt Q8NGJ0); assay: OR5A1 cell-based cAMP HTRF assay; details: dose-response, 100% = full agonist; for Emax: read-out: OR5A1 % Efficacy
T5 construct: Lucy (cleavable signal peptide) (N); FLAG (N); Rho (first 20 aa of bovine rhodopsin) (N); expressed in transfected cells
T5 sequence (Q8NGJ0 1-315): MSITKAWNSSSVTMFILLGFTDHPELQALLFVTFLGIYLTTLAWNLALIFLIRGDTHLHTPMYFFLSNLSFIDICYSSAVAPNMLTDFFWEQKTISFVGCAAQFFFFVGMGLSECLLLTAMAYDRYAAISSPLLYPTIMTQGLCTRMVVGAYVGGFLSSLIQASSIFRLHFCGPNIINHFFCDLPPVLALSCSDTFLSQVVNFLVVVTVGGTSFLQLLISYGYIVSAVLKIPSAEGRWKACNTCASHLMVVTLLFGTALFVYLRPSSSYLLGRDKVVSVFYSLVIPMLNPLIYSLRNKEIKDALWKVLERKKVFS

[1] = dose-response, 100% = full agonist

Compound: CC(=O)/C(C)=C/C1C(C)=CCCC1(C)C (racemic) [Methyl ionone gamma, (+−)-(e)-3-methyl-4-(2,6,6-trimethyl-2-cyclohexen-1-yl)-3-buten-2-one]
Emax (OR7A17; read-out: OR7A17 % Efficacy): 65%

Compound: 1-(4,8-dimethyl-12-methylidenecyclododeca-4,8-dien-1-yl)ethanone; 1-(2,6,10-trimethylcyclododeca-1,5,9-trien-1-yl)ethanone; 1-(2,6,10-trimethylcyclododeca-2,5,9-trien-1-yl)ethanone [Trimofix]
OR7A17 % Efficacy (OR7A17): 74%

Compound: 1-(2,3,8,8-tetramethyl-1,3,4,6,7,8~{a}-hexahydronaphthalen-2-yl)ethanone; 1-(2,3,8,8-tetramethyl-1,3,5,6,7,8~{a}-hexahydronaphthalen-2-yl)ethanone; 1-(2,3,8,8-tetramethyl-1,3,4,5,6,7-hexahydronaphthalen-2-yl)ethanone [Derambrene]
OR7A17 % Efficacy (OR7A17): 83%

Compound: 4-(2,6,6-trimethylcyclohexen-1-yl)but-3-en-2-one; 4-(2,6,6-trimethylcyclohex-2-en-1-yl)but-3-en-2-one [Violette AT]
OR5A1 % Efficacy (OR5A1): 78%

Compound: O=c1ccc2ccccc2o1 [Coumarin, chromen-2-one]
Emax (OR8B3): 95%

Compound: C[C@@H]1[C@@H]2C[C@H](C[C@]13C=CC(=O)CC3)C2(C)C [Wolfwood, (1~{S},2~{R},3~{R},5~{R})-2,6,6-trimethylspiro[bicyclo[3.1.1]heptane-3,4′-cyclohex-2-ene]-1′-one]
OR7A17 % Efficacy (OR7A17): 100%

Compound: CCCCC1CCC(=O)O1 (centres unmarked) [Gamma Octalactone, 5-butyloxolan-2-one]
Active OR/Linked Tonality: OR5AU1 (Lactonic Coconut) (OR5AU1): OR5AU1/ | Emax (OR8B3): 100%

Compound: CCCCC1CCCC(=O)O1 (centres unmarked) [Nonalactone Delta, 6-butyloxan-2-one]
Active OR/Linked Tonality: OR5AU1 (Lactonic Coconut) (OR5AU1): OR5AU1/ | Emax (OR8B3): 97%

Compound: CC1(C)[C@H]2C[C@H]3CCC(=O)C=C3[C@@H]1C2 [Tricyclone, (1~{R},7~{R},9~{S})-10,10-dimethyltricyclo[7.1.1.0^{2,7}]undec-2-en-4-one]
OR8B3 % Efficacy (OR8B3): 77%

Compound: CC=CCCC1CCCC(=O)O1 (centres unmarked) [Delta Jasmolactone, 6-pent-3-enyloxan-2-one]
Emax (OR5AU1; [1]): 92% | Active OR/Linked Tonality: OR5AU1 (Lactonic Coconut) (OR5AU1): OR5AU1/

Compound: CC1(C)CCCC(C)(C)C1=O [2,2,6,6-tetramethyl-1-cyclohexanone]
OR11A1 agonism in dose-response experiments (OR11A1): did not yield any significant dose-response

Compound: CCCCC1OC(=O)CC1C (centres unmarked) [Whiskey Lactone K, 5-butyl-4-methyloxolan-2-one]
Active OR/Linked Tonality: OR5AU1 (Lactonic Coconut) (OR5AU1): OR5AU1/ | Emax (OR8B3): 88%

Compound: CC(=O)c1cc2c(cc1C)C(C)(C)C(C)CC2(C)C (centres unmarked) [Tonalide, 1-(3,5,5,6,8,8-hexamethyl-6,7-dihydronaphthalen-2-yl)ethanone]
OR11A1 agonism in dose-response experiments (OR11A1): weak (partial) agonist | Emax (OR11A1): 21%

Further lines, results first:

OR8B3 % Efficacy (OR8B3): 95%
Compound: O=C1CCC2CCCCC2O1 (centres unmarked) [Octahydrocoumarine, 3,4,4~{a},5,6,7,8,8~{a}-octahydrochromen-2-one]

Emax (OR5AU1; [1]): 88%
Compound: CCCCCC1CCCC(=O)O1 (centres unmarked) [Delta decalactone, 6-pentyloxan-2-one]

OR11A1 % Efficacy (OR11A1): 83%
Compound: C[C@@H]1CC[C@]2(O)C(C)(C)[C@H]3CC[C@@]2(C)[C@@H]1C3 [Patchouli Alcohol, (1~{S},3~{S},6~{R},7~{R},8~{S})-2,2,6,8-tetramethyltricyclo[5.3.1,0^{3,8}]undecan-3-ol]

OR5AU1 % Efficacy (OR5AU1; [1]): 100%
Compound: CCCCC[C@H]1OC(=O)C[C@H]1C [Tuberolide Ht, (4~{R},5~{R})-4-methyl-5-pentyloxolan-2-one]

Emax (OR11A1): 86%
Compound: CC12CCC(C1)C(C)(C)C2O (centres unmarked) [Fenchyl Alcohol, (1~{R},2~{R},4~{S})-1,3,3-trimethylbicyclo[2.2.1]heptan-2-ol]

OR7A17 % Efficacy (OR7A17): 82%
Compound: CC1(C)CCC[C@]2(C)CC(=O)CC[C@@H]12 [Z-95, (4~{a}~{S},8~{a}~{R})-5,5,8~{a}-trimethyl-3,4,4~{a},6,7,8-hexahydro-1~{H}-naphthalen-2-one]

Active OR/Linked Tonality: OR5AU1 (Lactonic Coconut) (OR5AU1): OR5AU1/
Compound: CCCCCCC1CCC(=O)O1 (centres unmarked) [Gamma Decalactone, 5-hexyloxolan-2-one]

Emax (OR5AU1; [1]): 80%
Compound: CCCCCC1CCCC1=O (centres unmarked) [Delphone, 2-pentylcyclopentan-1-one]

OR11A1 % Efficacy (OR11A1): 89%
Compound: Cc1cc2c(cc1C=O)C(C)(C)[C@H](C)[C@@H](C)C2(C)C [Vulcanolide, (6~{R},7~{R})-3,5,5,6,7,8,8-heptamethyl-6,7-dihydronaphthalene-2-carbaldehyde]

OR8B3 % Efficacy (OR8B3): 74%
Compound: 9-ethylidene-3-oxatricyclo[6.2.1.0^{2,7}]undecan-4-one; 10-ethylidene-3-oxatricyclo[6.2.1.0^{2,7}]undecan-4-one [Florex]

Emax (OR11A1): 100%
Compound: CC1CCCC2(C)CCCCC12O (centres unmarked) [Geosmin, (4~{S},8~{a}~{R})-4,8~{a}-dimethyl-1,2,3,4,5,6,7,8-octahydronaphthalen-4~{a}-ol]

Emax (OR5A1): 91%
Compound: CC(=O)C=CC1=C(C)CCC(C)C1(C)C (stereo not drawn) [Irone beta, 4-(2,5,6,6-tetramethylcyclohexen-1-yl)but-3-en-2-one]

Emax (OR5A1): 82%
Compound: CCC(=O)C=CC1=C(C)CCCC1(C)C [Methylionone beta, 1-(2,6,6-trimethylcyclohexen-1-yl)pent-1-en-3-one]

Active OR/Linked Tonality: OR5AU1 (Lactonic Coconut) (OR5AU1): OR5AU1/
Compound: CCCC1CCCC(=O)O1 (centres unmarked) [Octalactone Delta, 6-propyloxan-2-one]

Reference: patent US20230065799A1, “METHOD FOR ATTRIBUTING OLFACTORY TONALITIES TO OLFACTORY RECEPTOR ACTIVATION AND METHODS FOR IDENTIFYING COMPOUNDS HAVING THE ATTRIBUTED TONALITIES” (FIRMENICH SA, priority 2019, published 2023)
